According to patent publication US20050159390A1, “Treatment and prevention of HIV and other viral infections” (priority 1998, published 2005):
Read-outs that look alike come from different tables or passages of the source.

Experiments:
HIV-1III B = test: HIV-1 P24 output in activated human PBMCs, test solution mixed with virus overnight, day 9; type: cell-based; details: for inhibition at 5000 µg/mL (stock): Human immunodeficiency virus 1, PBMC, 216 h, read-out: Inhibition % of the control (P24 output)
Method: Research Grade Purified d-Galactose (CAT# g404, lot 117H00431, FW 180.2, Sigma Chemical Co., St. Louis, Mo.) was dissolved in saline at a concentration of 5 mg/ml. The solution was allowed to stand at room temperature for 15 minutes and mixed by vortex until the galactose was completely dissolved. The galactose solution was divided into two equal aliquots. Stabilizing solution (0.1 ml) was added to one aliquot, then vortexed and incubated at room temperature for 30 minutes. After mixing again, the mixture was centrifuged at 1500 g for 30 minutes and the supernatant was filtered through a 0.2 μm filter and transferred to a sterile 15 ml tube. The solution was sterilized by gamma radiation (2.5 mega RADs) with 15 minutes exposure. The aliquot without the stabilizing solution was labeled “1A” and the aliquot containing the stabilized solution was labeled “1B”. […] […] Control solutions were water.
One ml of each of the dilutions of the test solution or control was mixed with an equal volume of HIV-1III B (˜50 TCID50/2×10^5 cells) to infect activated human PBMCs overnight at 37° C. (3×10^5 cells/dilution). HIV-1III B is a laboratory-adapted strain. The cells then were washed and placed in culture media containing the indicated dilution of the test solution in triplicate wells ([…], ½ medium changes with media containing the indicated dilutions of test solution were made at ˜3 day intervals). The conditioned media were tested for HIV-1 P24 output on day 9 using the DuPont P24 assay kit. The control was infected PBMCs in the absence of test solutions. Results are shown in Table 9 and are measured as the Inhibition % of the control.

HIV-1 IIIB = test: HIV-1 P24 output in activated human PBMCs, test solutions added post infection; type: cell-based; details: repeat with further dilutions; dilution 1:1000
Method: In addition, a similar experiment was performed, except that test solutions were added post infection, at the time of plating into the triplicate wells.

HIV-1IIIB = test: CEM-SS cell-based assay, inhibition of HIV-induced cell killing (XTT); details: CEM-SS cells
HIV-1RF = test: as above; details: CEM-SS cells
Method: (§1) Cell Preparation: Prior to infection, CEM-SS cells were grown in complete tissue culture medium (RPMI 1640 medium with 10% heat-inactivated fetal bovine serum, 2 mM L-glutamine, 100 U/mL penicillin, 100 μg/mL streptomycin, 10 μg/mL gentamycin) and transferred to T-150 flasks. On the day preceding the assay, the cells were split 1:2 to assure the cells would be in an exponential growth phase at time of infection. On the day of assay, the cells were washed twice with tissue culture medium and resuspended in fresh tissue culture medium. […]
Virus Preparation: Pre-tittered aliquots of HIV-1ROJO and HIV-1RF were removed from the freezer (−80° C.) and thawed to room temperature in a biological safety cabinet. The virus was resuspended and diluted into tissue culture medium such that the amount of virus added to each well in a volume of 50 μL will be the amount determined to give complete cell killing at 6 days post-infection.
Tetrazolium dye staining of screening plates: After 6 days of incubation (37° C. with 5% CO2), the test plates were analyzed by staining with the tetrazolium dye XTT (2,3-b (2-methoxy-4-nitro-5-sulfophenyl)-2H-tetrazolium-5-carboxanilide). XTT-tetrazolium is metabolized by mitochondrial enzymes of metabolically active cells to a soluble formazan product, allowing the rapid quantitative analysis of the inhibition of HIV-induced cell killing by anti-HIV compounds. […]

CEM-SS cells = type: cell-based
Method: as §1
(§2) Tetrazolium dye staining of screening plates: After 6 days of incubation (37° C. with 5% CO2), the test plates were analyzed by staining with the tetrazolium dye XTT (2,3-b (2-methoxy-4-nitro-5-sulfophenyl)-2H-tetrazolium-5-carboxanilide). XTT-tetrazolium is metabolized by mitochondrial enzymes of metabolically active cells to a soluble formazan product, allowing the rapid quantitative analysis of the inhibition of HIV-induced cell killing by anti-HIV compounds. […] Plates were sealed with adhesive plate sealers and inverted several times to mix the soluble formazan product and the plate was read spectrophotometrically at 450 nm with a Molecular Devices Vmax plate reader. Indices such as % CPE Reduction (cytopathic effects), % Cell Viability, IC25, IC50, IC95, TC25, TC50, and TC95 and other indices were calculated. […]

PBMCs = type: cell-based, human
Method: For the standard PBMC assay, PHA-P stimulated cells from at least two normal donors were pooled, diluted in fresh medium to a final concentration of 1×10^6 cells/mL, and plated in the interior wells of a 96 well round bottom microplate at 50 μL/well (5×10^4 cells/well). Test drug dilutions were prepared at a 2× concentration in microfuge tubes and 100 μL of each concentration was placed in appropriate wells in a standard format. A predetermined dilution of virus stock was placed in each test well (50 μL, final MOI≅0.1). Wells with cells and virus alone were used for virus control. Separate plates were prepared identically without virus for drug cytotoxicity studies using an XTT assay system. […]
as §2, with “reader.” for “reader. Indices such as % CPE Reduction (cytopathic effects), % Cell Viability, IC25, IC50, IC95, TC25, TC50, and TC95 and other indices were calculated.”

X4 strain LAI/IIIB = test: RT activity in infected PBMCs treated with carbohydrates; type: cell-based, HIV; details: summary of Table 17
Method: Reverse Transcriptase Activity Assay: A microtiter based reverse transcriptase (RT) reaction was utilized as described by Buckheit et al., (1991), AIDS Research and Human Retroviruses, 7: 295-302. Tritiated thymidine triphosphate (3H-TTP) was suspended in distilled H2O at 5 Ci/mL. Poly rA and oligo dT were prepared as a stock solution which was kept at −20° C. RT reaction buffer was prepared fresh on a daily basis and contained 125 μL 1M EGTA, 125 μL dH2O, 110 μL 10% SDS, 50 μL 1M Tris (pH 7.4), 50 μL 1M DTT, and 40 μL 1M MgCl2. These three solutions were mixed together in a ratio of 2 parts 3H-TTP, 1 part poly rA:oligo dT, and 1 part reaction buffer. Ten microliters of this reaction mixture were placed in a round bottom microtiter plate and 15 μL of virus containing supernatant were added and mixed. The plate was incubated at 37° C. in a water bath with a solid support to prevent submersion of the plate and incubated for 60 minutes. […] Opti-Fluor-O (Packard) was added to each sample and incorporated radioactivity was quantified utilizing a Wallac 1450 MicroBeta Plus liquid scintillation counter. […]
No carbohydrates were added to the control sample. RT activity was determined at 3, 6, 9, 13, 17, and 20 days post-infection (PI) with X4 strain LAI/IIIB.

[1] = dilution 1:10 of 5 mg/ml solution
[2] = dilution 1:20 of 5 mg/ml solution
[3] = dilution 1:40 of 5 mg/ml solution
[4] = dilution 1:80 of 5 mg/ml solution
[5] = dilution 1:160 of 5 mg/ml solution

SMILES: OC[C@H]1O[C@H](O[C@H]2[C@@H](O)[C@@H](CO)OC(O)[C@@H]2O)[C@H](O)[C@@H](O)[C@H]1O (single isomer, unassigned) [3B, galactose-α 1,3-galactose]
- Inhibition % of the control (P24 output) (HIV-1III B; [1]): 4.6%
- Inhibition % of the control (P24 output) (HIV-1III B; [2]): 3.6%
- Inhibition % of the control (P24 output) (HIV-1III B; [3]): 1.8%
- Inhibition % of the control (P24 output) (HIV-1III B; [4]): 1.1%
- Inhibition % of the control (P24 output) (HIV-1III B; [5]): 0.5%

SMILES: O=C(CO)N[C@H]1[C@H]([C@H](O)[C@H](O)CO)OC(O)(C(=O)O)C[C@@H]1O (single isomer, unassigned) [2B, N-glycolylneuraminic acid]
- Inhibition % of Control (P24 output) (HIV-1 IIIB): 1%
- Inhibition % of the control (P24 output) (HIV-1III B; [3]): 61%

SMILES: Cc1cn([C@H]2C[C@H](N=[N+]=[N-])[C@@H](CO)O2)c(=O)[nH]c1=O [AZT, reference compound]
- IC50 (HIV-1IIIB): 11 to 17 nM
- IC50 (HIV-1RF): 5 to 7 nM
- CC50 (CEM-SS cells): > 1000 nM
- CC50 (PBMCs): > 4000 nM

SMILES: O=C[C@H](O)[C@@H](O)[C@@H](O)[C@H](O)CO [1A, d-Galactose]
- inhibition at 5000 µg/mL (stock) (HIV-1III B; [1]): 4%
- inhibition at 5000 µg/mL (stock) (HIV-1III B; [2]): 5%
- inhibition at 5000 µg/mL (stock) (HIV-1III B; [3]): 4%
- inhibition at 5000 µg/mL (stock) (HIV-1III B; [4]): 2%
- inhibition at 5000 µg/mL (stock) (HIV-1III B; [5]): 2%

SMILES: O=C[C@H](O)[C@@H](O)[C@@H](O)[C@H](O)CO [1B, d-Galactose]
- Inhibition % of the control (P24 output) (HIV-1III B; [1]): 7%
- Inhibition % of the control (P24 output) (HIV-1III B; [2]): 5%
- Inhibition % of the control (P24 output) (HIV-1III B; [3]): 3%
- Inhibition % of the control (P24 output) (HIV-1III B; [4]): 4%
- Inhibition % of the control (P24 output) (HIV-1III B; [5]): 2%

SMILES: O=C(CO)N[C@H]1[C@H]([C@H](O)[C@H](O)CO)OC(O)(C(=O)O)C[C@@H]1O (single isomer, unassigned) [2A, N-glycolylneuraminic acid]
- Inhibition % of Control (P24 output) (HIV-1 IIIB): 7%
- inhibition at 5000 µg/mL (stock) (HIV-1III B; [2]): 78%
- inhibition at 5000 µg/mL (stock) (HIV-1III B; [3]): 66%
- inhibition at 5000 µg/mL (stock) (HIV-1III B; [4]): 41%
- inhibition at 5000 µg/mL (stock) (HIV-1III B; [5]): 19%

SMILES: OC[C@H]1O[C@H](O[C@H]2[C@@H](O)[C@@H](CO)OC(O)[C@@H]2O)[C@H](O)[C@@H](O)[C@H]1O (single isomer, unassigned) [3A, galactose-α 1,3-galactose]
- Inhibition % of the control (P24 output) (HIV-1III B; [2]): 3.6%
- Inhibition % of the control (P24 output) (HIV-1III B; [3]): 2.2%
- Inhibition % of the control (P24 output) (HIV-1III B; [4]): 1.4%
- Inhibition % of the control (P24 output) (HIV-1III B; [5]): 0.4%

SMILES: CC(=O)N[C@H]1[C@H]([C@H](O)[C@H](O)CO)OC(O)(C(=O)O)C[C@@H]1O (stereo partly shown) [N-acetylneuraminic acid, reference compound]
- RT activity in treated cells (in words) (X4 strain LAI/IIIB): decreased RT activity was observed only with high concentrations
